In one assay the target is T1, human 11β-HSD1 (Homo sapiens, UniProt P28845).
T1 construct: The obtained PCR products of about 0.9 kbp, 1.2 kbp, and 0.9 kbp were subcloned into an expression vector pcDNA3.1+/Zeo; expressed in transfected cells
Description: Enzyme inhibitory activity, human 11β-HSD1 (lysate of stably expressing HEK293 cells, cortisol by competitive ELISA). It is filed as biochemical. To be noted: human 11β-HSD1, cell lysate, 37° C. for 1 hour, read-out: h HSD1 in vitro assay (IC50 uM). As for the experimental part:
(§1) 1. Human 11β-HSD1-, Human 11β-HSD2- and Mouse 11β-HSD1-Gene Clonings and Establishment of Stably Expressing Cells
(§2) Human 11β-HSD1-, human 11β-HSD2-, and mouse 11β-HSD1-gene clonings were conducted using as a template a reverse transcription product of human-liver RNA, human-kidney RNA (CELL APPLICATIONS), and mouse-kidney RNA respectively, by means of PCR cloning with reference to nucleotide sequences of Genbank Accession Nos. NM_005525, NM_000196, and NM_008288. The obtained PCR products of about 0.9 kbp, 1.2 kbp, and 0.9 kbp were subcloned into an expression vector pcDNA3.1+/Zeo (Invitrogen).
(§3) Human 11β-HSD1- and human 11β-HSD2-expressing vectors were transfected into human kidney-derived cell line, HEK293 cells, using a transfection reagent, jet PEI (Funakoshi). Mouse 11β-HSD1 was transfected to Chinese hamster ovary-derived cell line, CHO-K1 cells. Selection was conducted with 200-400 μg/mL of zeocine (Invitrogen) to provide stably expressing-cell clones. The stably expressing cells were suspended in buffer solution A (20 mmol/L Tris-HCl, pH 7.4, 250 mmol/L sucrose, 1 mmol/L EGTA, 1 mmol/L EDTA, 1 mmol/L MgCl2), sonicated, and then stored at −80° C.
(§4) 2. Assay of Enzyme Inhibitory Activity
(§5) An enzymatic reaction was conducted using a polystyrene 96-well plate. Each well was added with 1 μL of a test agent dissolved in DMSO and then diluted (0.003 to 3 mmol/L), and further added with 10 μL of cell lysate diluted to a concentration of 0.1 mg/mL to 0.4 mg/mL. Next, 90 μL of buffer solution A containing substrate (100 nmol/L cortisone or cortisol) and coenzyme (400 μmol/L NADPH or NAD+) was added and the mixture was incubated at 37° C. for 1 hour. The enzymatic reaction was stopped by treating at 95° C. for 3 minutes. Cortisol that was present in the reaction solution was determined by a competitive ELISA shown below.
(§6) Anti-rabbit IgG antibody (Chemi-con) diluted to 2 μg/mL with carbonate buffer solution (pH 9.6) was added in 100 μL each to a 96-well immuno plate (Nunc) and immobilized by an incubation at 4° C. overnight. 50 μL of enzymatic reaction solution was put onto the plates, and further, anti-cortisol antibody (Cosmo Bio) and HRP-labeled cortisol (Cosmo Bio), diluted with buffer solution B (25 mmol/L Tris-HCl pH 7.4, 137 mmol/L NaCl, 2.68 mmol/L KCl), were added in 50 μL respectively and incubated at 4° C. overnight. After washed three times with buffer solution B containing 0.05% Tween 20, the plates were allowed to develop color by adding 100 μL of color reagent, TMB (Moss). The color reaction was stopped by 25 μL of 1 mol/L sulfuric acid and the absorbance was determined at 450 nm with a microplate reader (Molecular Device, VersaMax).
(§7) The values of human 11β-HSD1, human 11β-HSD2, and mouse 11β-HSD1 activities were subtracted from 100, and the resultant values were regarded as the respective 11β-HSD inhibition rates of example compounds. […] The comparison of human 11β-HSD1 and human 11β-HSD2 inhibiting activities is shown in Table 1, and the comparison of human 11β-HSD1 and mouse 11β-HSD1 inhibiting activities is shown in Table 2.
Background: ELISA stands for enzyme-linked immunosorbent assay.

In a further assay the target is T2, mouse 11β-HSD1 (Mus musculus, UniProt P50172).
T2 construct: The obtained PCR products of about 0.9 kbp, 1.2 kbp, and 0.9 kbp were subcloned into an expression vector pcDNA3.1+/Zeo; expressed in transfected cells
T2 sequence (P50172 whole entry): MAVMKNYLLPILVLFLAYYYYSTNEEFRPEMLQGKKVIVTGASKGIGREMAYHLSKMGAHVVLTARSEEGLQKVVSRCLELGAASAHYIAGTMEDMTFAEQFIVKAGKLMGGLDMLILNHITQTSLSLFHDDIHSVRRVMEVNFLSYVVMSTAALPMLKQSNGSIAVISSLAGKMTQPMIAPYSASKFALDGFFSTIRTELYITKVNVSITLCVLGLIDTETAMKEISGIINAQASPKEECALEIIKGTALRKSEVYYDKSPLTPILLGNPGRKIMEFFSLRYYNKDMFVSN
Description: Enzyme inhibitory activity, mouse 11β-HSD1 (lysate of stably expressing CHO-K1 cells, cortisol by competitive ELISA). It is filed as biochemical. To be noted: Table 2; mouse 11β-HSD1, cell lysate, 37° C. for 1 hour; read-out: m HSD1 in vitro assay (IC50 uM). As for the experimental part:
as §1, §2, §3, §4, §5, §6, §7

Molecules are shown by their SMILES. Like-named read-outs stand apart in the source and are kept apart here.

T1 sequence (P28845 whole entry): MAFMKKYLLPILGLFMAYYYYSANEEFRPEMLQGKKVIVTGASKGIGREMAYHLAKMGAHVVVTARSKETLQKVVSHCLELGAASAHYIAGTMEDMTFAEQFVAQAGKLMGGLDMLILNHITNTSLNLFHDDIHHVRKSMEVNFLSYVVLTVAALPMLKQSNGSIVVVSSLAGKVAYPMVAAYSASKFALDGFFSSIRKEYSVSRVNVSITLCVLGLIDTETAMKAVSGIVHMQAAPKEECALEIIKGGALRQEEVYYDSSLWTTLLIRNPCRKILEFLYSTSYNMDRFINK

As usually defined, the IC50 is the concentration at which inhibition is half-maximal. As to `CC1C(=O)N(C2C3CC4CC(C3)CC2C4)N1Cc1ccccc1` (centres unmarked) [Example 8, 1-benzyl-4-methyl-2-(adamantan-2-yl)-1,2-diazetidin-3-one], the IC50 on human 11β-HSD1 (Table 2) amounted to 0.79 µM; at mouse 11β-HSD1, 0.18 µM.

Consider `CC1C(=O)N(C2C3CC4CC(C3)CC2C4)N1Cc1ccc(Cl)cc1` (centres unmarked) [Example 9, 1-(4-chlorobenzyl)-4-methyl-2-(adamantan-2-yl)-1,2-diazetidin-3-one], for which the IC50 on human 11β-HSD1 (Table 2) was 0.68 µM; on mouse 11β-HSD1 it was 0.24 µM.

`CC1(C)C(=O)N(C2C3CC4CC(C3)CC2C4)N1Cc1ccccc1` (centres unmarked) [Example 12, 1-benzyl-4,4-dimethyl-2-(adamantan-2-yl)-1,2-diazetidin-3-one]: the IC50 was found to be 0.047 µM at human 11β-HSD1 (Table 2) and 0.023 µM at mouse 11β-HSD1.

Turning to `CC1(C)C(=O)N(C2C3CC4CC(C3)CC2C4)N1Cc1ccc(Cl)cc1` (centres unmarked) [Example 13, 1-(4-chlorobenzyl)-4,4-dimethyl-2-(adamantan-2-yl)-1,2-diazetidin-3-one], the IC50 is 0.058 µM at human 11β-HSD1 (Table 2) and 0.025 µM on mouse 11β-HSD1.

On to `Cc1ccc(CN2N(C3C4CC5CC(C4)CC3C5)C(=O)C2(C)C)cc1` (centres unmarked) [Example 14, 4,4-dimethyl-1-(4-methylbenzyl)-2-(adamantan-2-yl)-1,2-diazetidin-3-one], for which the IC50 at human 11β-HSD1 (Table 2) was found to be 0.84 µM; on mouse 11β-HSD1, 0.088 µM.

For `CC1(C)C(=O)N(C2C3CC4CC(C3)CC2C4)N1Cc1ccc(F)cc1` (centres unmarked) [Example 15, 1-(4-fluorobenzyl)-4,4-dimethyl-2-(adamantan-2-yl)-1,2-diazetidin-3-one], the results for the IC50 on human 11β-HSD1 (Table 2) and on mouse 11β-HSD1 were 0.36 µM and 0.084 µM, respectively.

For the molecule `CC1(C)C(=O)N(C2C3CC4CC(C3)CC2C4)N1Cc1ccc(F)c(F)c1` (centres unmarked) [Example 16, 1-(3,4-difluorobenzyl)-4,4-dimethyl-2-(adamantan-2-yl)-1,2-diazetidin-3-one], the IC50 came out at 0.8 µM on human 11β-HSD1 (Table 2) and 0.1 µM on mouse 11β-HSD1.

Consider `CC1(C)C(=O)N(C2C3CC4CC(C3)CC2C4)N1Cc1ccc(F)cc1F` (centres unmarked) [Example 17, 1-(2,4-difluorobenzyl)-4,4-dimethyl-2-(adamantan-2-yl)-1,2-diazetidin-3-one], for which the half-maximal inhibitory concentration (IC50) at human 11β-HSD1 (Table 2) worked out at 0.71 µM; on mouse 11β-HSD1, 0.23 µM.

Consider `CC1(C)C(=O)N(C2C3CC4CC(C3)CC2C4)N1Cc1cccc(F)c1F` (centres unmarked) [Example 19, 1-(2,3-difluorobenzyl)-4,4-dimethyl-2-(adamantan-2-yl)-1,2-diazetidin-3-one], for which the IC50 on human 11β-HSD1 (Table 2) worked out at 0.47 µM; on mouse 11β-HSD1, 0.27 µM.

For the molecule `CC1(C)C(=O)N(C2C3CC4CC(C3)CC2C4)N1Cc1cc(F)ccc1F` (centres unmarked) [Example 20, 1-(2,5-difluorobenzyl)-4,4-dimethyl-2-(adamantan-2-yl)-1,2-diazetidin-3-one], the IC50 at human 11β-HSD1 (Table 2) amounted to 0.35 µM; on mouse 11β-HSD1 it was 0.2 µM.

For `CC1(C)C(=O)N(C2C3CC4CC(C3)CC2C4)N1C(=O)c1ccccc1I` (centres unmarked) [Example 121, 1-[(2-iodophenyl)carbonyl]-4,4-dimethyl-2-(adamantan-2-yl)-1,2-diazetidin-3-one], the IC50 at human 11β-HSD1 (Table 1) turned out to be 0.07 µM.

As to `CC1(C)C(=O)N(C2C3CC4CC(C3)CC2C4)N1C(=O)c1cc(Cl)ccc1Cl` (centres unmarked) [Example 122, 1-[(2,5-dichlorophenyl)carbonyl]-4,4-dimethyl-2-(adamantan-2-yl)-1,2-diazetidin-3-one], on human 11β-HSD1 (Table 1), the IC50 was found to be 0.32 µM.

Regarding `CCc1ccccc1C(=O)N1N(C2C3CC4CC(C3)CC2C4)C(=O)C1(C)C` (centres unmarked) [Example 126, 1-[(2-ethylphenyl)carbonyl]-4,4-dimethyl-2-(adamantan-2-yl)-1,2-diazetidin-3-one], the IC50 on human 11β-HSD1 (Table 1) is 0.11 µM.

Turning to `CC1(C)C(=O)N(C2C3CC4CC(C3)CC2C4)N1C(=O)c1ccc(F)cc1C(F)(F)F` (centres unmarked) [Example 132, 1-[(4-fluoro-2-trifluoromethylphenyl)carbonyl]-4,4-dimethyl-2-(adamantan-2-yl)-1,2-diazetidin-3-one], on human 11β-HSD1 (Table 1), the IC50 is 0.66 µM.

Regarding `CC1(C)C(=O)N(C2C3CC4CC(C3)CC2C4)N1C(=O)c1ccccc1N` (centres unmarked) [Example 136, 1-[(2-aminophenyl)carbonyl]-4,4-dimethyl-2-(adamantan-2-yl)-1,2-diazetidin-3-one], at human 11β-HSD1 (Table 1), the IC50 amounted to 0.14 µM.

On to `Cc1ccc(C)c(C(=O)N2N(C3CCCCC3)C(=O)C2(C)C)c1` [Example 149, 2-cyclohexyl-1-[(2,5-dimethylphenyl)carbonyl]-4,4-dimethyl-1,2-diazetidin-3-one], for which the IC50 on human 11β-HSD1 (Table 1) was found to be 0.9 µM.

Turning to `CC1(C)C(=O)N(C2CCCCCCC2)N1C(=O)c1cccc2ccccc12` [Example 154, 2-cyclooctyl-4,4-dimethyl-1-(naphthalen-1-ylcarbonyl)-1,2-diazetidin-3-one], the IC50 on human 11β-HSD1 (Table 1) is 0.036 µM.

For `CC1(C)C(=O)N(C2C3CC4CC(C3)CC2C4)N1C(=O)c1cc(Cl)ccc1Br` (centres unmarked) [Example 163, 1-[(2-bromo-5-chlorophenyl)carbonyl]-4,4-dimethyl-2-(adamantan-2-yl)-1,2-diazetidin-3-one], the IC50 at human 11β-HSD1 (Table 1) is 0.72 µM.

In the case of `CSc1ccccc1C(=O)N1N(C2C3CC4CC(C3)CC2C4)C(=O)C1(C)C` (centres unmarked) [Example 165, 4,4-dimethyl-1-{[2-(methylthio)phenyl]carbonyl}-2-(adamantan-2-yl)-1,2-diazetidin-3-one], the IC50 on human 11β-HSD1 (Table 1) turned out to be 0.096 µM.

`CSc1ccccc1C(=O)N1N(C2CCCCCCC2)C(=O)C1(C)C` [Example 168, 2-cyclooctyl-4,4-dimethyl-1-{[2-(methylthio)phenyl]carbonyl}-1,2-diazetidin-3-one]: the concentration for half-maximal inhibition (IC50) on human 11β-HSD1 (Table 1) was found to be 0.11 µM.

With `COCOc1ccc(N2N(C3C4CC5CC(C4)CC3C5)C(=O)C2(C)C)cc1` (centres unmarked) [Example 214, 1-[4-(methoxymethoxy)phenyl]-4,4-dimethyl-2-(adamantan-2-yl)-1,2-diazetidin-3-one], on human 11β-HSD1 (Table 1), the IC50 was found to be 0.041 µM.

Turning to `COc1ccccc1N1N(C2CC3CCC2C3)C(=O)C1(C)C` (centres unmarked) [Example 223, 2-(bicyclo[2.2.1]heptan-2-yl)-1-(2-methoxyphenyl)-4,4-dimethyl-1,2-diazetidin-3-one], the IC50 on human 11β-HSD1 (Table 1) came out at 0.68 µM.

Regarding `CC1(C)C(=O)N([C@H]2C3CC4CC2C[C@](O)(C4)C3)N1c1ccccc1` [Example 226, trans-2-(5-hydroxyadamantan-2-yl)-4,4-dimethyl-1-phenyl-1,2-diazetidin-3-one], the IC50 on human 11β-HSD1 (Table 1) was determined as 0.95 µM.

As for `COc1ccc(N2N([C@H]3C4CC5CC3C[C@](O)(C5)C4)C(=O)C2(C)C)cc1` [Example 230, trans-2-(5-hydroxyadamantan-2-yl)-1-(4-methoxyphenyl)-4,4-dimethyl-1,2-diazetidin-3-one], the IC50 on human 11β-HSD1 (Table 1) came out at 0.54 µM.

For the molecule `COc1ccc(N2N([C@H]3C4CC5CC3C[C@@](O)(C5)C4)C(=O)C2(C)C)cc1` [Example 240, cis-2-(5-hydroxyadamantan-2-yl)-1-(4-methoxyphenyl)-4,4-dimethyl-1,2-diazetidin-3-one], the IC50 at human 11β-HSD1 (Table 1) is 0.32 µM.

For the molecule `Cc1ccccc1N1N([C@H]2C3CC4CC2C[C@@](O)(C4)C3)C(=O)C1(C)C` [Example 242, cis-2-(5-hydroxyadamantan-2-yl)-4,4-dimethyl-1-(2-methylphenyl)-1,2-diazetidin-3-one], the IC50 at human 11β-HSD1 (Table 1) turned out to be 0.076 µM.

With `CC1(C)C(=O)N([C@H]2C3CC4CC2C[C@@](O)(C4)C3)N1c1ccccc1O` [Example 244, cis-1-(2-hydroxyphenyl)-2-(5-hydroxyadamantan-2-yl)-4,4-dimethyl-1,2-diazetidin-3-one], the IC50 at human 11β-HSD1 (Table 1) came out at 0.81 µM.

For the molecule `CC1(C)C(=O)N([C@H]2C3CC4CC2C[C@@](Cl)(C4)C3)N1c1cccc(Cl)c1Cl` [Example 256, cis-2-(5-chloroadamantan-2-yl)-1-(2,3-dichlorophenyl)-4,4-dimethyl-1,2-diazetidin-3-one], on human 11β-HSD1 (Table 1), the IC50 worked out at 0.26 µM.

The values are drawn from US8252781B2, “1,2-diazetidin-3-one derivatives and drugs containing same” (Kowa Company, Ltd., priority 2008, dated 2012).
